The values below come from PMC6152376, “Synthesis and Evaluation of Novel Benzofuran Derivatives as Selective SIRT2 Inhibitors” (Molecules : A Journal of Synthetic Chemistry and Natural …, 2017).

The subject of one assay is SIRT2. More on the design: method as in PMID 26961318, PMID 24992072, PMID 26025875, PMID 24387981. The conditions noted are these: known sirtuin inhibitors, Figure 1; ref [16],[17],[18],[19]; cited from earlier work.
Another assay concerns SIRT1. More on the design: method as in PMID 26961318, PMID 24992072, PMID 26025875, PMID 24387981. The following applies: known sirtuin inhibitors, Figure 1; ref [16],[17],[18],[19]; cited from earlier work.
In the next assay the target is T1, human recombinant SIRT3 (Homo sapiens, UniProt Q9NTG7).
T1 sequence (Q9NTG7 118-399): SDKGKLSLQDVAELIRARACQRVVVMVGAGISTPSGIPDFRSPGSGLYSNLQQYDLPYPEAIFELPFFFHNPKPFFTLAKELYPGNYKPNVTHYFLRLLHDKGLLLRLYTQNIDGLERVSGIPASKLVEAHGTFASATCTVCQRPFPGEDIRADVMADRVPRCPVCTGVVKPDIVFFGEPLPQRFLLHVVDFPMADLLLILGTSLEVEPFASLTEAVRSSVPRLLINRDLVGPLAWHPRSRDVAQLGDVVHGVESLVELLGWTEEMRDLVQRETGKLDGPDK
The experiment in a line: SIRT3 enzymatic deacetylation assay with AMC-tagged peptide substrate (fluorescence).

Regarding `Cn1cc(C2=C(c3cn(CCCSC(=N)N)c4ccccc34)C(=O)NC2=O)c2ccccc21` [Ro31-8220], the IC50 with SIRT2 is […]; in the assay on SIRT1 it was […].

Turning to `CN(C)CCCCC(=O)Nc1ccc(NC(=S)NC(=O)c2ccc(C(C)(C)C)cc2)cc1` [Tenovin6], the IC50 with SIRT2 is […]; in the assay on SIRT1, […]; on human recombinant SIRT3, 89.3 µM.

A word on the IC50: it is the midpoint of a concentration-inhibition curve.
